Results as given in US20260226068A1, “IMIDAZOTRIAZINE IL-17A MODULATORS AND USES THEREOF” (DICE ALPHA, INC., priority 2023, published 2026).

Experiments:
IL-17A/A = target: T1, IL-17A/A (Homo sapiens, UniProt Q16552); experiment: IL-17A/A HEK-Blue cell assay (SEAP reporter); format: cell-based; settings: HEK-Blue IL-17A reporter cells, IL17A/A 5 ng/mL, 20 hours, SEAP read at A630; read-out: HEK-Blue IL17AA (IC50 for IL-17A/A inhibition)
T1 construct: purchased Genscript Z03228
T1 sequence (Q16552 24-155): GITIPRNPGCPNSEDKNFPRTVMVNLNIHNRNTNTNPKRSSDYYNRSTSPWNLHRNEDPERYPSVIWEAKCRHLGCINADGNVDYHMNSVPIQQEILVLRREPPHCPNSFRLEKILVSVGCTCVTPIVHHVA

IL-17A/F = target: T2, IL-17A/F (Homo sapiens, UniProt Q16552+Q96PD4); experiment: IL-17A/F HEK-Blue cell assay (SEAP reporter); format: cell-based; settings: HEK-Blue IL-17A reporter cells, IL17A/F 5 ng/mL, 20 hours, SEAP read at A630; read-out: HEK-Blue IL17AF (IC50 for IL-17A/F inhibition)
T2 construct: purchased R&D Systems
T2 sequence (Q16552 24-155): T1 sequence (Q16552 24-155)
T2 sequence (Q96PD4 31-163): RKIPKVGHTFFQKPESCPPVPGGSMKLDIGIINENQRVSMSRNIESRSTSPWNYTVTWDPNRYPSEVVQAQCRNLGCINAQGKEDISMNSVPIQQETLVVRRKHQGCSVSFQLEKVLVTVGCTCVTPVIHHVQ

| Structure (SMILES) | IC50 (IL-17A/A) [nM] | IC50 (IL-17A/F) [nM] |
| --- | --- | --- |
| CCn1nccc1C(=O)N[C@H](c1cn2nc(C[C@H]3C[C@@H](C(F)(F)F)CNC3=O)c(N(C)C3COC3)nc2n1)C1CCC(F)(F)CC1 [Compound 180, N—((S)-(4,4-difluorocyclohexyl)(3-(methyl(oxetan-3-yl)amino)-2-(((3R,5R)-2-oxo-5-(trifluoromethyl)piperidin-3-yl)methyl)imidazo[1,2-b][1,2,4]triazin-6-yl)methyl)-1-ethyl-1H-pyrazole-5-carboxamide] | 100 to 1000 | > 1000 |
| CCn1ncnc1C(=O)N[C@H](c1cn2nc(C[C@H]3C[C@H](C)CNC3=O)c(C3CCOCC3)nc2n1)C1CCC(F)(F)CC1 [Compound 387] | 100 to 1000 | > 1000 |
| C[C@H]1CN(c2nc3nc([C@@H](NC(=O)c4ccnn4C)[C@@H]4CCCC(F)(F)C4)cn3nc2C[C@H]2C[C@@H](C(F)(F)F)CNC2=O)CCO1 [Compound 308, N—((S)—((R)-3,3-difluorocyclohexyl)(3-((S)-2-methylmorpholino)-2-(((3R,5R)-2-oxo-5-(trifluoromethyl)piperidin-3-yl)methyl)imidazo[1,2-b][1,2,4]triazin-6-yl)methyl)-1-methyl-1H-pyrazole-5-carboxamide] | < 100 | 100 to 1000 |
| CCc1nonc1C(=O)N[C@H](c1cn2nc(C[C@H]3C[C@@H](C(F)(F)F)CNC3=O)c(N3CCN(C)CC3)nc2n1)C1CCC(F)(F)CC1 [Compound 312, N—((S)-(4,4-difluorocyclohexyl)(3-(4-methylpiperazin-1-yl)-2-(((3R,5R)-2-oxo-5-(trifluoromethyl)piperidin-3-yl)methyl)imidazo[1,2-b][1,2,4]triazin-6-yl)methyl)-4-ethyl-1,2,5-oxadiazole-3-carboxamide] | < 100 | > 1000 |
| CCn1nccc1C(=O)N[C@H](c1cn2nc(CC3C[C@@H](C(F)(F)F)CNC3=O)c(N3CC4CC(C3)O4)nc2n1)[C@H]1CCCC(F)(F)C1 (single isomer, unassigned) [Compound 93] | < 100 | 100 to 1000 |
| CN(C)CCn1nccc1C(=O)N[C@H](c1cn2nc(C[C@H]3C[C@@H](C(F)(F)F)CNC3=O)c(C3CCOCC3)nc2n1)C1CCC(F)(F)CC1 [Compound 362, N—((S)-(4,4-difluorocyclohexyl)(2-(((3R,5R)-2-oxo-5-(trifluoromethyl)piperidin-3-yl)methyl)-3-(tetrahydro-2H-pyran-4-yl)imidazo[1,2-b][1,2,4]triazin-6-yl)methyl)-1-(2-(dimethylamino)ethyl)-1H-pyrazole-5-carboxamide] | 100 to 1000 | > 1000 |
| CCc1nc2nc([C@@H](NC(=O)c3ccnn3C)C3CCC(F)(F)CC3)cn2nc1C[C@H]1C[C@@H](C(F)(F)F)CNC1=O [Compound 295, N—((S)-(4,4-difluorocyclohexyl)(3-ethyl-2-(((3R,5R)-2-oxo-5-(trifluoromethyl)piperidin-3-yl)methyl)imidazo[1,2-b][1,2,4]triazin-6-yl)methyl)-1-methyl-1H-pyrazole-5-carboxamide] | < 100 | > 1000 |
| CC(C)n1nccc1C(=O)N[C@H](c1cn2nc(C[C@H]3C[C@@H](C(F)(F)F)CNC3=O)c(C3CCOCC3)nc2n1)[C@@H]1CCCC(F)(F)C1 [Compound 127, N-((1S)—((R)-3,3-difluorocyclohexyl)(2-(((3R,5R)-2-oxo-5-(trifluoromethyl)piperidin-3-yl)methyl)-3-(tetrahydro-2H-pyran-4-yl)imidazo[1,2-b][1,2,4]triazin-6-yl)methyl)-1-isopropyl-1H-pyrazole-5-carboxamide] | < 100 | 100 to 1000 |
| O=C(N[C@H](c1cn2nc(C[C@H]3C[C@@H](C(F)(F)F)CNC3=O)c([C@H]3CCCOC3)nc2n1)[C@@H]1CCCC(F)(F)C1)c1nonc1C1CC1 [Compound 249] | < 100 | 100 to 1000 |
| CCn1nccc1C(=O)N[C@H](c1cn2nc(C[C@H]3C[C@@H](C(F)(F)F)CNC3=O)c(C3CN(C)C3)nc2n1)C1CCC(F)(F)CC1 [Compound 302, N—((S)-(4,4-difluorocyclohexyl)(3-(1-methylazetidin-3-yl)-2-(((3R,5R)-2-oxo-5-(trifluoromethyl)piperidin-3-yl)methyl)imidazo[1,2-b][1,2,4]triazin-6-yl)methyl)-1-ethyl-1H-pyrazole-5-carboxamide] | < 100 | > 1000 |

Other lines, results leading:

| IC50 (IL-17A/A) [nM] | IC50 (IL-17A/F) [nM] | Structure (SMILES) |
| --- | --- | --- |
| < 100 | 100 to 1000 | CCn1nccc1C(=O)N[C@H](c1cn2nc(C[C@H]3C[C@@H](C(F)(F)F)CNC3=O)c(CN3CCOCC3)nc2n1)C(C1CC1)C1CC1 [Compound 406, N—((S)-2,2-dicyclopropyl-1-(3-(morpholinomethyl)-2-(((3R,5R)-2-oxo-5-(trifluoromethyl)piperidin-3-yl)methyl)imidazo[1,2-b][1,2,4]triazin-6-yl)ethyl)-1-ethyl-1H-pyrazole-5-carboxamide] |
| < 100 | 100 to 1000 | CCn1nccc1C(=O)N[C@H](c1cn2nc(CC3C[C@@H](C(F)(F)F)CNC3=O)c(N3CC4CC(C3)O4)nc2n1)[C@@H]1CCCC(F)(F)C1 (single isomer, unassigned) [Compound 96] |
| < 100 | 100 to 1000 | CCn1nccc1C(=O)N[C@H](c1cn2nc(C[C@H]3C[C@@H](C(F)(F)F)CNC3=O)c(N3C[C@H](C)O[C@@H](C)C3)nc2n1)C1CCC(F)(F)CC1 [Compound 420, N—((S)-(4,4-difluorocyclohexyl)(3-((2S,6S)-2,6-dimethylmorpholino)-2-(((3R,5R)-2-oxo-5-(trifluoromethyl)piperidin-3-yl)methyl)imidazo[1,2-b][1,2,4]triazin-6-yl)methyl)-1-ethyl-1H-pyrazole-5-carboxamide] |
| < 100 | > 1000 | CCn1nccc1C(=O)N[C@H](c1cn2nc(C[C@H]3C[C@@H](C(F)(F)F)CNC3=O)c(CN3CCOCC3)nc2n1)C1CCC(F)(F)CC1 [Compound 142, N—((S)-(4,4-difluorocyclohexyl)(3-(morpholinomethyl)-2-(((3R,5R)-2-oxo-5-(trifluoromethyl)piperidin-3-yl)methyl)imidazo[1,2-b][1,2,4]triazin-6-yl)methyl)-1-ethyl-1H-pyrazole-5-carboxamide] |
| < 100 | 100 to 1000 | Cn1nccc1C(=O)N[C@H](c1cn2nc(C[C@H]3C[C@@H](C(F)(F)F)CNC3=O)c(CC3COC3)nc2n1)C1CCCCCC1 [Compound 377, N—((S)-cycloheptyl(3-(oxetan-3-ylmethyl)-2-(((3R,5R)-2-oxo-5-(trifluoromethyl)piperidin-3-yl)methyl)imidazo[1,2-b][1,2,4]triazin-6-yl)methyl)-1-methyl-1H-pyrazole-5-carboxamide] |
| < 100 | 100 to 1000 | CCn1nccc1C(=O)N[C@H](c1cn2nc(C[C@H]3C[C@@H](C(F)(F)F)CNC3=O)c(N(C)CCOC)nc2n1)C1CCC(F)(F)CC1 [Compound 237, N—((S)-(4,4-difluorocyclohexyl)(3-((2-methoxyethyl)(methyl)amino)-2-(((3R,5R)-2-oxo-5-(trifluoromethyl)piperidin-3-yl)methyl)imidazo[1,2-b][1,2,4]triazin-6-yl)methyl)-1-ethyl-1H-pyrazole-5-carboxamide] |
| < 100 | 100 to 1000 | CCn1nccc1C(=O)N[C@H](c1cn2nc(C[C@H]3C[C@@H](C(F)(F)F)CNC3=O)c(N3CCOC[C@H]3C)nc2n1)C1CCC(F)(F)CC1 [Compound 236] |
| < 100 | 100 to 1000 | CCn1nccc1C(=O)N[C@H](c1cn2nc(C[C@H]3C[C@@H](C(F)(F)F)CNC3=O)c([C@@H]3CCOC3)nc2n1)C(C1CC1)C1CC1 (single isomer, unassigned) [Compound 322] |
| < 100 | 100 to 1000 | O=C(N[C@H](c1cn2nc(C[C@H]3C[C@@H](C(F)(F)F)CNC3=O)c(C3CCOCC3)nc2n1)C1CCC(F)(F)CC1)c1ccnn1CC(F)(F)F [Compound 186, N-((1S)-(4,4-difluorocyclohexyl)(2-(((3R,5R)-2-oxo-5-(trifluoromethyl)piperidin-3-yl)methyl)-3-(tetrahydro-2H-pyran-4-yl)imidazo[1,2-b][1,2,4]triazin-6-yl)methyl)-1-(2,2,2-trifluoroethyl)-1H-pyrazole-5-carboxamide] |
| < 100 | 100 to 1000 | O=C(N[C@H](c1cn2nc(C[C@H]3C[C@@H](C(F)(F)F)CNC3=O)c(C3CCCOC3)nc2n1)[C@H]1CCCC(F)(F)C1)c1nonc1C1CC1 (single isomer, unassigned) [Compound 126] |
| < 100 | > 1000 | CCn1nccc1C(=O)N[C@H](c1cn2nc(C[C@H]3C[C@@H](C(F)(F)F)CNC3=O)c(C3CNC3)nc2n1)C1CCC(F)(F)CC1 [Compound 301, N—((S)-(3-(azetidin-3-yl)-2-(((3R,5R)-2-oxo-5-(trifluoromethyl)piperidin-3-yl)methyl)imidazo[1,2-b][1,2,4]triazin-6-yl)(4,4-difluorocyclohexyl)methyl)-1-ethyl-1H-pyrazole-5-carboxamide] |
| < 100 | 100 to 1000 | CCn1nccc1C(=O)N[C@H](c1cn2nc(C[C@H]3C[C@@H](C(F)(F)F)CNC3=O)c(N3CCC(F)(F)CC3)nc2n1)C1CCC(F)(F)CC1 [Compound 192, N—((S)-(4,4-difluorocyclohexyl)(3-(4,4-difluoropiperidin-1-yl)-2-(((3R,5R)-2-oxo-5-(trifluoromethyl)piperidin-3-yl)methyl)imidazo[1,2-b][1,2,4]triazin-6-yl)methyl)-1-ethyl-1H-pyrazole-5-carboxamide] |
